Measurements: ChEMBL document CHEMBL5678812, “Inhibitors of p21-activated kinases (PAKs)” (J Med Chem, 2015)
Each block holds one molecule with its values, some of them ahead of it.

What was measured:
[1] = target: Tyrosine-protein kinase Lyn (Homo sapiens) (UniProt P07948); test: Inhibition of LynB (unknown origin) at 0.1 uM relative to control
[2] = target: NUAK family SNF1-like kinase 1 (Homo sapiens) (UniProt O60285); test: Inhibition of ARK5 (unknown origin) at 0.1 uM relative to control
[3] = target: Cyclin-dependent kinase 7/ cyclin H (Homo sapiens) (UniProt P51946+P50613); test: Inhibition of CDK7/CyclinH (unknown origin) at 0.1 uM relative to control; format: protein-complex assay
[4] = target: Leucine-rich repeat serine/threonine-protein kinase 2 (Homo sapiens) (UniProt Q5S007); test: Inhibition of LRRK2 (unknown origin) at 0.1 uM relative to control
[5] = target: Serine/threonine-protein kinase NLK (Homo sapiens) (UniProt Q9UBE8); test: Inhibition of NLK (unknown origin) at 0.1 uM relative to control
[6] = target: Phosphatidylinositol 4,5-bisphosphate 3-kinase catalytic subunit gamma isoform (Homo sapiens) (UniProt P48736); test: Inhibition of PI3Kgamma (unknown origin) at 0.1 uM relative to control
[7] = target: Receptor-interacting serine/threonine-protein kinase 2 (Homo sapiens) (UniProt O43353); test: Inhibition of RIPK2 (unknown origin) at 0.1 uM relative to control
[8] = target: RAC-beta serine/threonine-protein kinase (Homo sapiens) (UniProt P31751); test: Inhibition of AKT2 (unknown origin) at 0.1 uM relative to control
[9] = target: Aurora kinase B (Homo sapiens) (UniProt Q96GD4); test: Inhibition of Aurora B (unknown origin) at 0.1 uM relative to control
[10] = target: Tyrosine-protein kinase receptor UFO (Homo sapiens) (UniProt P30530); test: Inhibition of Axl (unknown origin) at 0.1 uM relative to control
[11] = target: Serine/threonine-protein kinase BRSK1 (Homo sapiens) (UniProt Q8TDC3); test: Inhibition of BrSK1 (unknown origin) at 0.1 uM relative to control
[12] = target: T1, Cyclin-dependent kinase 5/CDK5 activator 1 (Homo sapiens) (UniProt Q00535+Q15078); test: Inhibition of CDK5/p25 (unknown origin) at 0.1 uM relative to control; format: protein-complex assay
[13] = target: T1, Cyclin-dependent kinase 5/CDK5 activator 1 (Homo sapiens); test: Inhibition of CDK5/p35 (unknown origin) at 0.1 uM relative to control; format: protein-complex assay
[14] = target: Dual specificity protein kinase CLK2 (Homo sapiens) (UniProt P49760); test: Inhibition of CLK2 (unknown origin) at 0.1 uM relative to control
[15] = target: Tyrosine-protein kinase CSK (Homo sapiens) (UniProt P41240); test: Inhibition of CSK (unknown origin) at 0.1 uM relative to control
[16] = target: Calcium/calmodulin-dependent protein kinase type II subunit delta (Homo sapiens) (UniProt Q13557); test: Inhibition of CaMKIIdelta (unknown origin) at 0.1 uM relative to control
[17] = target: Calcium/calmodulin-dependent protein kinase type IV (Homo sapiens) (UniProt Q16566); test: Inhibition of CamKIV (unknown origin) at 0.1 uM relative to control
[18] = target: Serine/threonine-protein kinase DCLK2 (Homo sapiens) (UniProt Q8N568); test: Inhibition of DCAMKL2 (unknown origin) at 0.1 uM relative to control
[19] = target: Dual specificity tyrosine-phosphorylation-regulated kinase 1A (Homo sapiens) (UniProt Q13627); test: Inhibition of DYRK1A (unknown origin) at 0.1 uM relative to control
[20] = target: Dual specificity tyrosine-phosphorylation-regulated kinase 4 (Homo sapiens) (UniProt Q9NR20); test: Inhibition of DYRK4 (unknown origin) at 0.1 uM relative to control
[21] = target: Tyrosine-protein kinase Fgr (Homo sapiens) (UniProt P09769); test: Inhibition of Fgr (unknown origin) at 0.1 uM relative to control
[22] = target: Homeodomain-interacting protein kinase 2 (Homo sapiens) (UniProt Q9H2X6); test: Inhibition of HIPK2 (unknown origin) at 0.1 uM relative to control
[23] = target: Interleukin-1 receptor-associated kinase 4 (Homo sapiens) (UniProt Q9NWZ3); test: Inhibition of IRAK4 (unknown origin) at 0.1 uM relative to control
[24] = target: MAP kinase-activated protein kinase 2 (Homo sapiens) (UniProt P49137); test: Inhibition of MAPKAPK2 (unknown origin) at 0.1 uM relative to control
[25] = target: MAP kinase-activated protein kinase 3 (Homo sapiens) (UniProt Q16644); test: Inhibition of MAPKAPK3 (unknown origin) at 0.1 uM relative to control
[26] = target: Serine/threonine-protein kinase MRCK alpha (Homo sapiens) (UniProt Q5VT25); test: Inhibition of MRCKalpha (unknown origin) at 0.1 uM relative to control
[27] = target: SRSF protein kinase 3 (Homo sapiens) (UniProt Q9UPE1); test: Inhibition of MSSK1 (unknown origin) at 0.1 uM relative to control
[28] = target: Mitogen-activated protein kinase kinase kinase kinase 4 (Homo sapiens) (UniProt O95819); test: Inhibition of NIK (unknown origin) at 0.1 uM relative to control
[29] = target: Protein kinase C theta type (Homo sapiens) (UniProt Q04759); test: Inhibition of PKCtheta (unknown origin) at 0.1 uM relative to control
[30] = target: Serine/threonine-protein kinase PLK1 (Homo sapiens) (UniProt P53350); test: Inhibition of PLK1 (unknown origin) at 0.1 uM relative to control
[31] = target: MAP kinase-activated protein kinase 5 (Homo sapiens) (UniProt Q8IW41); test: Inhibition of PRAK (unknown origin) at 0.1 uM relative to control
[32] = target: Rho-associated protein kinase 1 (Homo sapiens) (UniProt Q13464); test: Inhibition of ROCK1 (unknown origin) at 0.1 uM relative to control
[33] = target: Tyrosine-protein kinase receptor TYRO3 (Homo sapiens) (UniProt Q06418); test: Inhibition of Rse (unknown origin) at 0.1 uM relative to control
[34] = target: Ribosomal protein S6 kinase alpha-1 (Homo sapiens) (UniProt Q15418); test: Inhibition of Rsk1 (unknown origin) at 0.1 uM relative to control
[35] = target: Serine/threonine-protein kinase Sgk1 (Homo sapiens) (UniProt O00141); test: Inhibition of SGK1 (unknown origin) at 0.1 uM relative to control
[36] = target: SRSF protein kinase 1 (Homo sapiens) (UniProt Q96SB4); test: Inhibition of SRPK1 (unknown origin) at 0.1 uM relative to control
[37] = target: Serine/threonine-protein kinase 25 (Homo sapiens) (UniProt O00506); test: Inhibition of YSK1 (unknown origin) at 0.1 uM relative to control
[38] = target: Death-associated protein kinase 3 (Homo sapiens) (UniProt O43293); test: Inhibition of ZIPK (unknown origin) at 0.1 uM relative to control
[39] = target: Mitogen-activated protein kinase 11 (Homo sapiens) (UniProt Q15759); test: Inhibition of p38beta (unknown origin) at 0.1 uM relative to control

T1 sequence (Q00535 whole entry): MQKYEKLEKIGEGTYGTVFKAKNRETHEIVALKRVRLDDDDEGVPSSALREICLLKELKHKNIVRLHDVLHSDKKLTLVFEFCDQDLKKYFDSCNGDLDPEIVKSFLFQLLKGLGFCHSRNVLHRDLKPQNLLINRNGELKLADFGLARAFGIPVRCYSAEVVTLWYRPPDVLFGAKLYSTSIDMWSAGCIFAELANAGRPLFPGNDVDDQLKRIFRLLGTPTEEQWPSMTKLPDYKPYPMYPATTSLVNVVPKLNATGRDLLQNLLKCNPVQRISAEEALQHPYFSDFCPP
T1 sequence (Q15078 99-307 partner limits assumed): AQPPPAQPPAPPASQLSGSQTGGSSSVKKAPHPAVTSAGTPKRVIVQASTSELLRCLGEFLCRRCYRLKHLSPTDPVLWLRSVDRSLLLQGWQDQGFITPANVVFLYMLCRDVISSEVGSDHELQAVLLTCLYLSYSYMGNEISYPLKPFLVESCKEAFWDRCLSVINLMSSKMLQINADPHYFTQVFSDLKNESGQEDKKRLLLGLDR
Chain of Tyrosine-protein kinase CSK (Homo sapiens) (P41240 2-450 limits assumed): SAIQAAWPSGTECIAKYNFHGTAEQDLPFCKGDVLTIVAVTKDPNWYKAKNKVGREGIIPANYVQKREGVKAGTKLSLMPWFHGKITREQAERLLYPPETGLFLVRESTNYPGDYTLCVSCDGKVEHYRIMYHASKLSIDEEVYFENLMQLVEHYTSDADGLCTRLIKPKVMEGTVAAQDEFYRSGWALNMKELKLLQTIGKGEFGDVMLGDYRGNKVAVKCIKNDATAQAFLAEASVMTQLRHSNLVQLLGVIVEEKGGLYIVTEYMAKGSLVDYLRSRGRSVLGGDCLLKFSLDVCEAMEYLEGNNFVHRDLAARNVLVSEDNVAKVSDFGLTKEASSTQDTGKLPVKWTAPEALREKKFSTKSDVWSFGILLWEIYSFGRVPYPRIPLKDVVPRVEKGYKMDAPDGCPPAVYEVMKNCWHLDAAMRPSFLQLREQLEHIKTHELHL
Chain of Serine/threonine-protein kinase MRCK alpha (Homo sapiens) (Q5VT25 whole entry): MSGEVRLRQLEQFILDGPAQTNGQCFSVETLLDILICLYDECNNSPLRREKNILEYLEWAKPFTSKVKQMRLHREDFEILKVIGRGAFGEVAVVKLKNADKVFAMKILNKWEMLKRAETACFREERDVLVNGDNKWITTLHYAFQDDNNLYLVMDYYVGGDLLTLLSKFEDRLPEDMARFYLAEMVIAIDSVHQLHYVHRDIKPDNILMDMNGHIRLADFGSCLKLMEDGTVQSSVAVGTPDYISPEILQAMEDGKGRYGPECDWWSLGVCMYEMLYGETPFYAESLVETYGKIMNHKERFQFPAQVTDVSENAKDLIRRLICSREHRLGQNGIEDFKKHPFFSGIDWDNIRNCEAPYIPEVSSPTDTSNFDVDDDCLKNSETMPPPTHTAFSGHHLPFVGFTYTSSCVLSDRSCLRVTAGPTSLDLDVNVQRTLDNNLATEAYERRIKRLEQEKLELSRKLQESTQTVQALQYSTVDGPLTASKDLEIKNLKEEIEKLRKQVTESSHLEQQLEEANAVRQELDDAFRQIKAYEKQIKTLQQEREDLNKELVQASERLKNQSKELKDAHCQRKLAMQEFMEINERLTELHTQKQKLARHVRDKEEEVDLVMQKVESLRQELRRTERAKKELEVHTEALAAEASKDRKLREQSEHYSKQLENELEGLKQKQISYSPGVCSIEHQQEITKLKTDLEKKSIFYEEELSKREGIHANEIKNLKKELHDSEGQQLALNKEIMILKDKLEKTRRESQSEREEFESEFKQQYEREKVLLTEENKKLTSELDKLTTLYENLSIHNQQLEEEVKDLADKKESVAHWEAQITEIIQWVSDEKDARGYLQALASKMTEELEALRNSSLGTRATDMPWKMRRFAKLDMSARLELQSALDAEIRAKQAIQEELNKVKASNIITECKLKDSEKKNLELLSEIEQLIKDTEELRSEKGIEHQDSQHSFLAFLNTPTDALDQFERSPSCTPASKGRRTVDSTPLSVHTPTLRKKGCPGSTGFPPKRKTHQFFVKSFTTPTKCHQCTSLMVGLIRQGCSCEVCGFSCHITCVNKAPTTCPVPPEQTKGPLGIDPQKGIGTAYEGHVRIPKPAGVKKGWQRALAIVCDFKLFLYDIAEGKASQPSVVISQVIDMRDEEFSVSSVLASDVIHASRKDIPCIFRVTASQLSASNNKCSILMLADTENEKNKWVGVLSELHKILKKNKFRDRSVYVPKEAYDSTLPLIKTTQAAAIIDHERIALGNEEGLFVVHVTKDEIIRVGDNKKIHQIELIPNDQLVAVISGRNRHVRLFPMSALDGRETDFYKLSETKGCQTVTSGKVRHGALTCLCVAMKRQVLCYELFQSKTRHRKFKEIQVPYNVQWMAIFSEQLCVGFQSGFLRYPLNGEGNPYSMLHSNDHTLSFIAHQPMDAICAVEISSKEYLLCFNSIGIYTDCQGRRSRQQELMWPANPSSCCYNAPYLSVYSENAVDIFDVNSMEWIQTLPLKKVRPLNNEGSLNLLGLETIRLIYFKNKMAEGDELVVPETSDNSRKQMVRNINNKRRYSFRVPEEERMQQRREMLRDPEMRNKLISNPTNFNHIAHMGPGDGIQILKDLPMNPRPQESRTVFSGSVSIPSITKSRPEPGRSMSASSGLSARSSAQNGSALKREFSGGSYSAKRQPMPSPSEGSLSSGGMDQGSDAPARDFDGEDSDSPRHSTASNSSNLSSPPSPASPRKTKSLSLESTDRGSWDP
Chain of Tyrosine-protein kinase Lyn (Homo sapiens) (P07948 2-512 limits assumed): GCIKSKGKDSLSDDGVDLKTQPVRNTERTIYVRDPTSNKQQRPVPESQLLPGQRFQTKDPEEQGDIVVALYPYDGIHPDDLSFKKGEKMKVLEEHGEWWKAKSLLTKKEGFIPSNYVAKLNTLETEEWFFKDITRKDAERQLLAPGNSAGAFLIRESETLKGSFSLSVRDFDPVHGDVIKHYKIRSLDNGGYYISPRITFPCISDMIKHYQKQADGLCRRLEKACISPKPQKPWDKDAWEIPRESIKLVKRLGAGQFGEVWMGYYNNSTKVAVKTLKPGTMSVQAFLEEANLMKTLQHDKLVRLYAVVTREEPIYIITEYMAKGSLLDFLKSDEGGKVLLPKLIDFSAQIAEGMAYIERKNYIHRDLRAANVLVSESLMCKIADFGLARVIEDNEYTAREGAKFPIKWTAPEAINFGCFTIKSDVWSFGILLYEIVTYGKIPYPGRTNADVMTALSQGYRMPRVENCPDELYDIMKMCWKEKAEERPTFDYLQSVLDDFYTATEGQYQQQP
Chain of Serine/threonine-protein kinase DCLK2 (Homo sapiens) (Q8N568 whole entry): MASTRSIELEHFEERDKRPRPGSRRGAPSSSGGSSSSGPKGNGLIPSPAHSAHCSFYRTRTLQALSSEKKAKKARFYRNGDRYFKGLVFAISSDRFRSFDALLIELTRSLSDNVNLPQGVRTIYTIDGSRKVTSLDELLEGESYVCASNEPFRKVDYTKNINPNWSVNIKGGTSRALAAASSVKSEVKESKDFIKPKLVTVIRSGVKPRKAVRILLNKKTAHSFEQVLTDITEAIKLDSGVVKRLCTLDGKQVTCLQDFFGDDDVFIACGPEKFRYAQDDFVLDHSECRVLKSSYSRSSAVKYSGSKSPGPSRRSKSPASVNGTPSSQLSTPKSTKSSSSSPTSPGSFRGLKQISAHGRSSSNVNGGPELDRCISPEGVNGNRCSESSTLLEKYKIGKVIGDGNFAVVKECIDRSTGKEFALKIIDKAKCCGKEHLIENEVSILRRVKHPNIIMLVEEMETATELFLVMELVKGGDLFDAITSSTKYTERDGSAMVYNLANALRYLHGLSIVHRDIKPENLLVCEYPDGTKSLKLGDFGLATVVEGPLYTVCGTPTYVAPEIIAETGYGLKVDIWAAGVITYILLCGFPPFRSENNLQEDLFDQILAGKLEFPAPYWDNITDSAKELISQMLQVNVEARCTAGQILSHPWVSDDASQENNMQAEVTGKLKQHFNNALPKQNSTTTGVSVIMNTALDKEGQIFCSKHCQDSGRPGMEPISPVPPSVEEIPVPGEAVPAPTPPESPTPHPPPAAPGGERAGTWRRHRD
Chain of Tyrosine-protein kinase receptor TYRO3 (Homo sapiens) (Q06418 whole entry): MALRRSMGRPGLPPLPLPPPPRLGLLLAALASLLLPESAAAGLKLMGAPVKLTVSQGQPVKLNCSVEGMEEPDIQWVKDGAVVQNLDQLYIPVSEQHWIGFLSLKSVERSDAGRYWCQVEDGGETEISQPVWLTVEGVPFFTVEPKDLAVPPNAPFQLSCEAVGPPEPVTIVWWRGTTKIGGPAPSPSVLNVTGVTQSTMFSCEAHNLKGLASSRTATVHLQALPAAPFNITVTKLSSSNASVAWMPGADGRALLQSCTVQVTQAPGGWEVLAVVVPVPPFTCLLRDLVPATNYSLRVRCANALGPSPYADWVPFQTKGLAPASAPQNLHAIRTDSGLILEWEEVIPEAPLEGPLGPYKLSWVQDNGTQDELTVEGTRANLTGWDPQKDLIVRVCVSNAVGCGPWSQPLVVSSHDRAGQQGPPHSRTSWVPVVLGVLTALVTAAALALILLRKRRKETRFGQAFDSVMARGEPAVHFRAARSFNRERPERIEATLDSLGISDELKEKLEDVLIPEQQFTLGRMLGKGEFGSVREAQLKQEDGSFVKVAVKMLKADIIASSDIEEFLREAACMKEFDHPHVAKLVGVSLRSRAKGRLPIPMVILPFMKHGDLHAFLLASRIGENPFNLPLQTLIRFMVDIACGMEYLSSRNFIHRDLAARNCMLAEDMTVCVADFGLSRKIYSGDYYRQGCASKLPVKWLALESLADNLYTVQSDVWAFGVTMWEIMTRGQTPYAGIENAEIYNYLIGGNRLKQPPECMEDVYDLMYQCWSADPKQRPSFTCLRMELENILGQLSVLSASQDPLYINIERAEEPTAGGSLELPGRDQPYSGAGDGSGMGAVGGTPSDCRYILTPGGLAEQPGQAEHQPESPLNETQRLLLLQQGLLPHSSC

inhibition [1]: 99.8%
inhibition [2]: 85.5%
inhibition [3]: 31%
inhibition [4]: 48.2%
inhibition [5]: 5%
inhibition [6]: 4.1%
inhibition [7]: 101%
Structure (SMILES): CN1CCc2cc(-c3cnc4[nH]cc(C(=O)c5ccccc5Cl)c4c3)ccc2C1

inhibition [8]: 3.6%
inhibition [9]: 4.7%
inhibition [10]: 1.9%
inhibition [11]: 4.6%
inhibition [12]: 4.3%
inhibition [13]: -1.6%
inhibition [14]: 0%
inhibition [15]: 9.8%
inhibition [16]: 6.9%
inhibition [17]: -6.6%
inhibition [18]: 10.9%
inhibition [19]: -2%
inhibition [20]: -3%
inhibition [21]: 3.6%
inhibition [22]: 2.8%
inhibition [23]: 4.3%
inhibition [24]: 3.9%
inhibition [25]: 4.8%
inhibition [26]: -2.4%
inhibition [27]: 9.8%
inhibition [28]: -0.5%
inhibition [29]: 12.3%
inhibition [30]: -2%
inhibition [31]: 5%
inhibition [32]: 0.8%
inhibition [33]: 1.4%
inhibition [34]: 6.7%
inhibition [35]: 4.4%
inhibition [36]: 5.4%
inhibition [37]: 6.5%
inhibition [39]: -6.4%
Structure (SMILES): COCCNc1nc2ccc(C#CC3(O)CCCCC3)cc2n1-c1ccnc(N)n1
inhibition [38]: 2.9%
